In ChEMBL document CHEMBL1909046, “DrugMatrix in vitro pharmacology data” one finds IC50 and Ki data, which are given here for 23 compounds.

Each structure is given as a SMILES string.

Test [1] concerns the target Epidermal growth factor receptor (Homo sapiens, UniProt P00533). Kind of test: DRUGMATRIX: Protein Tyrosine Kinase, EGF Receptor enzyme inhibition (substrate: Poly(Glu:Tyr)). The test is classed as cell-based, Insect cells. The note with it: Not Active = under 50% inhibition at 10 µM.
The nature of test [2]: DRUGMATRIX: Sodium/nucleoside co-transporter radioligand binding (ligand: nitrobenzylthioinosine). The test is classed as cell membranes, Cavia porcellus, Dunkin-Hartley, Cerebral cortex, Membrane. The conditions noted are these: Not Active = under 50% inhibition at 10 µM.
The next test concerns the target T1, Thromboxane-A synthase (Homo sapiens, UniProt P24557).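 Further: enzyme inhibition assay with PGH2 supplied as substrate; in other assays of this panel Not Active means under 50% inhibition at 10 µM.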
T1 sequence (P24557 whole entry): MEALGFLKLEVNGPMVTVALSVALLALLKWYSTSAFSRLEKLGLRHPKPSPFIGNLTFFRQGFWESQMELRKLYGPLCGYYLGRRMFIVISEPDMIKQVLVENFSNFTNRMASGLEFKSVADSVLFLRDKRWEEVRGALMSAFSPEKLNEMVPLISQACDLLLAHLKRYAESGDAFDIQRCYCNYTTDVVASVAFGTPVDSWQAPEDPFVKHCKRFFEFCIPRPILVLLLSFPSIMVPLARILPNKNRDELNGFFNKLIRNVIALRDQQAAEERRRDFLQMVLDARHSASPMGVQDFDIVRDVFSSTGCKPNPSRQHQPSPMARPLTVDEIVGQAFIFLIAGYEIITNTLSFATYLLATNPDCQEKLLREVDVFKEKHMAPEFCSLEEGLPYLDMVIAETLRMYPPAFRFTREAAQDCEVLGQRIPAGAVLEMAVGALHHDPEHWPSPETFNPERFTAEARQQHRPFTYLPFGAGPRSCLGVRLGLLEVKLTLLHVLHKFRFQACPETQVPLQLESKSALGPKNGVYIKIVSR
Kind of test: biochemical. The test is classed as tissue-based, Platelet.

Test [3] deals with 5-hydroxytryptamine receptor 6 (Homo sapiens, UniProt P50406). Type of test: cell membranes, HeLa, Membrane. The conditions noted are these: for Ki: read-out: Ki.
Test [4] deals with Aldo-keto reductase family 1 member B1 (Rattus norvegicus, UniProt P07943). Nature of the test: biochemical. Type of test: tissue-based, Lens of camera-type eye.
The target of another test is Substance-P receptor (Homo sapiens, UniProt P25103). Type of test: cell membranes, Membrane. The conditions noted are these: cho. Further: in other assays of this panel Not Active means under 50% inhibition at 10 µM.
Sequence of Substance-P receptor (P25103 whole entry): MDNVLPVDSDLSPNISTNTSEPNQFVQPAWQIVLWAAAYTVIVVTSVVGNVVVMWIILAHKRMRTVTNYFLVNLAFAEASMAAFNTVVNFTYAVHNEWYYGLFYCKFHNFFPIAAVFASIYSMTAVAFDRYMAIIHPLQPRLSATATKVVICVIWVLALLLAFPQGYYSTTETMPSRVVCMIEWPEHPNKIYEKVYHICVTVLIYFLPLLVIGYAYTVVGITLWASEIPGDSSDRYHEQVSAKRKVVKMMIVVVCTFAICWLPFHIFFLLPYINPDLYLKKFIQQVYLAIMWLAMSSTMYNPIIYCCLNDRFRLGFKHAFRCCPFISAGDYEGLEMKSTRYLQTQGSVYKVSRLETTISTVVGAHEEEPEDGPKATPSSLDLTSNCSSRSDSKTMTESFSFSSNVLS

Sequence of Epidermal growth factor receptor (P00533 whole entry): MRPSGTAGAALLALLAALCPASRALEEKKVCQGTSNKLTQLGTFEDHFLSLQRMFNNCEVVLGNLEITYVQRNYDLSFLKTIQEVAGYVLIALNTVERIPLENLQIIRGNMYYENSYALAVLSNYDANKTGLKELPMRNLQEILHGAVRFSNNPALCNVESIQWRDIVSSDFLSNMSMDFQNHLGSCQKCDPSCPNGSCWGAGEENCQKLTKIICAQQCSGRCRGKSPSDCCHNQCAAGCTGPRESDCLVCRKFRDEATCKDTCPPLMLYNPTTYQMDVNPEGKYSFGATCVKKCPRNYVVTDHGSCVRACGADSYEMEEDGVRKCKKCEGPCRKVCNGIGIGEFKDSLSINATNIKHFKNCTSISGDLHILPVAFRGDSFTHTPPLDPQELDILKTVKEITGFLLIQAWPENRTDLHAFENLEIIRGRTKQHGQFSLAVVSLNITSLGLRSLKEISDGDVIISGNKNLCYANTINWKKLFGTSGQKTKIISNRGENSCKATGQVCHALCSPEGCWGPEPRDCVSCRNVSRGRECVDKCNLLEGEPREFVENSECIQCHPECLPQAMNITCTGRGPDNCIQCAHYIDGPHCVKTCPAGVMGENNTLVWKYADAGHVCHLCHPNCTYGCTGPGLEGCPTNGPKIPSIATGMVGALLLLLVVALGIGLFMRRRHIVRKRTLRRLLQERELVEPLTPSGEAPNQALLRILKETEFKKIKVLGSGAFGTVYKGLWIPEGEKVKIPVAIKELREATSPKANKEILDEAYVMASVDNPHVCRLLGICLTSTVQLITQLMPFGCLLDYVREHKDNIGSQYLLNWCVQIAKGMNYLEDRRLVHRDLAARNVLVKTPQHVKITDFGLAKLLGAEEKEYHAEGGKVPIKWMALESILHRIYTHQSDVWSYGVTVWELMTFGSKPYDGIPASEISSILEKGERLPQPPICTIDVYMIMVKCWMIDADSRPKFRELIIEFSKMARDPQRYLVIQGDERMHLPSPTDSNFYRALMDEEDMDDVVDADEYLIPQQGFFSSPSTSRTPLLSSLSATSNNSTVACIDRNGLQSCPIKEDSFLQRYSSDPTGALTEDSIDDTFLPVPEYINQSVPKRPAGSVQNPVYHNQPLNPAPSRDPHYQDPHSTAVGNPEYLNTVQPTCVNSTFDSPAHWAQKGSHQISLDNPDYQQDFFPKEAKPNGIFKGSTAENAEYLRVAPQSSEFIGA
Sequence of 5-hydroxytryptamine receptor 6 (P50406 whole entry): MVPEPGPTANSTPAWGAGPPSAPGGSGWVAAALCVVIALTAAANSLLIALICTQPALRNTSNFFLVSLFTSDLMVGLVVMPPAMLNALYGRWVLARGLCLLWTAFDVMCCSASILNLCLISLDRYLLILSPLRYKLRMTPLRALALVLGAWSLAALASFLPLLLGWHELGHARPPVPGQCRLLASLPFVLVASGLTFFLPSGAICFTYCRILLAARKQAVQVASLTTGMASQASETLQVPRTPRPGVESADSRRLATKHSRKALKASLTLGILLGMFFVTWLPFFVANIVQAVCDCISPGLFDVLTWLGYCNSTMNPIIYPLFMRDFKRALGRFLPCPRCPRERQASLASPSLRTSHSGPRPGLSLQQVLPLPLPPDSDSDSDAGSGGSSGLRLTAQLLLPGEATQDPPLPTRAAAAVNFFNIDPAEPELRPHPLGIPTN

Take `Nc1ccc(C(=O)O)c(O)c1` [AMINOSALICYLIC ACID]: the IC50 entry (in test [1] (insect cells); in test [2]; on Thromboxane-A synthase (platelet); in test [3] (hela); in test [4]; against Substance-P receptor) was “Not Active” in each case. Besides, the Ki result in test [2] was “Not Active”.

As for `O=c1[nH]cnc2c1ncn2[C@H]1CC[C@@H](CO)O1` [DIDANOSINE], the IC50 entry (in test [1] (insect cells); in test [2]; against Thromboxane-A synthase (platelet); in test [3] (hela); in test [4]; against Substance-P receptor) was “Not Active” each time. The Ki entry in test [2] is “Not Active”.

Take `CCCCCCNC(=O)n1cc(F)c(=O)[nH]c1=O` [CARMOFUR]: the IC50 entry (in test [1] (insect cells); in test [2]; on Thromboxane-A synthase (platelet); in test [3] (hela); in test [4]; against Substance-P receptor) was “Not Active” in each case. Besides, the Ki result in test [2] is given as “Not Active”.

As for `C#C[C@]1(O)CC[C@H]2[C@@H]3CCC4=CC(=O)CC[C@@H]4[C@H]3CC[C@@]21C` [NORETHINDRONE], the IC50 entry (in test [1] (insect cells); in test [2]; against Thromboxane-A synthase (platelet); in test [3] (hela); in test [4]; at Substance-P receptor) was “Not Active” in each case. Besides, in test [2], the Ki result is recorded as “Not Active”.

For the compound `Cl.NC[C@H]1CC[C@H](C(=O)Oc2ccc(CCC(=O)O)cc2)CC1` [CETRAXATE HYDROCHLORIDE], the IC50 result (in test [1] (insect cells); in test [2]; against Thromboxane-A synthase (platelet); in test [3] (hela); in test [4]; on Substance-P receptor) was “Not Active” throughout. Further, the inhibition constant (Ki) entry in test [2] is “Not Active”.

Consider `CC(C)Cn1cnc2c(N)nc3ccccc3c21` [IMIQUIMOD], for which the IC50 entry (in test [1] (insect cells); in test [2]; at Thromboxane-A synthase (platelet); in test [3] (hela); in test [4]; against Substance-P receptor) was “Not Active” in each case. Also, the Ki result in test [2] is listed as “Not Active”.

For `O=C1CN(/N=C/c2ccc([N+](=O)[O-])o2)C(=O)N1` [NITROFURANTOIN], the IC50 entry (in test [1] (insect cells); in test [2]; against Thromboxane-A synthase (platelet); in test [3] (hela); in test [4]; at Substance-P receptor) was “Not Active” each time. In test [2], the Ki entry is reported as “Not Active”.

On to `Cc1c(N)nc([C@H](CC(N)=O)NC[C@H](N)C(N)=O)nc1C(=O)N[C@H](C(=O)N[C@H](C)[C@@H](O)[C@H](C)C(=O)N[C@H](C(=O)NCCc1nc(-c2nc(C(=O)NCCC[S+](C)C)cs2)cs1)[C@@H](C)O)[C@@H](O[C@@H]1O[C@@H](CO)[C@@H](O)[C@H](O)[C@@H]1O[C@H]1O[C@H](CO)[C@@H](O)[C@H](OC(N)=O)[C@@H]1O)c1c[nH]cn1.[Br-]` [BLEOMYCIN A2], for which the IC50 result (in test [1] (insect cells); in test [2]; on Thromboxane-A synthase (platelet); in test [3] (hela); in test [4]; against Substance-P receptor) was “Not Active” each time. Also, the Ki entry in test [2] is “Not Active”.

Turning to `CC(C)Cc1ccc([C@H](C)C(=O)O)cc1` [DEXIBUPROFEN], the half-inhibitory concentration (IC50) entry (in test [1] (insect cells); in test [2]; at Thromboxane-A synthase (platelet); in test [3] (hela); in test [4]; on Substance-P receptor) was “Not Active” throughout. Moreover, in test [2], the inhibition constant Ki result is given as “Not Active”.

Regarding `NS(=O)(=O)c1cc(C(=O)O)c(NCc2ccco2)cc1Cl` [FUROSEMIDE], the 50% inhibitory concentration (IC50) result (in test [1] (insect cells); in test [2]; at Thromboxane-A synthase (platelet); in test [3] (hela); in test [4]; against Substance-P receptor) was “Not Active” throughout. Further, in test [2], the inhibition constant (Ki) result is reported as “Not Active”.

Regarding `C[C@H]1C[C@H]2[C@@H]3CCC4=CC(=O)C=C[C@]4(C)[C@@]3(F)[C@@H](O)C[C@]2(C)[C@@]1(O)C(=O)CO` [BETAMETHASONE], the IC50 result (in test [1] (insect cells); in test [2]; at Thromboxane-A synthase (platelet); in test [3] (hela); in test [4]; against Substance-P receptor) was “Not Active” throughout. In test [2], the Ki entry is listed as “Not Active”.

Turning to `COC(=O)C[C@](O)(CCC(C)(C)O)C(=O)O[C@@H]1C(OC)=C[C@]23CCCN2CCc2cc4c(cc2[C@H]13)OCO4` [HARRINGTONINE], the IC50 entry (in test [1] (insect cells); in test [2]; on Thromboxane-A synthase (platelet); in test [3] (hela); in test [4]; against Substance-P receptor) was “Not Active” throughout. Also, the Ki result in test [2] was “Not Active”.

For the compound `CC(C)(c1ccc(O)cc1)c1ccc(O)cc1` [BISPHENOL A], the IC50 entry in test [1] (insect cells) was “Not Active”; in test [2], “Not Active”; at Thromboxane-A synthase (platelet) it was “Not Active”; in test [3] (read-out: IC50) it was 5.42 µM; in test [4] it was “Not Active”; on Substance-P receptor, “Not Active”. Besides, the inhibition constant (Ki) result was “Not Active” in test [2] and 2.52 µM in test [3].

With `CCN1CCN(C(=O)N[C@@H](C(=O)N[C@@H]2C(=O)N3[C@@H]2SC(C)(C)[C@@H]3C(=O)O)c2ccccc2)C(=O)C1=O` [PIPERACILLIN], the IC50 result (in test [1] (insect cells); in test [2]; at Thromboxane-A synthase (platelet); in test [3] (hela); in test [4]; against Substance-P receptor) was “Not Active” throughout. The Ki entry in test [2] is “Not Active”.

As to `CC[C@H]1OC(=O)[C@H](C)[C@@H](O[C@H]2C[C@@](C)(OC)[C@@H](O)[C@H](C)O2)[C@H](C)[C@@H](O[C@@H]2O[C@H](C)C[C@H](N(C)C)[C@H]2O)[C@](C)(O)C[C@@H](C)C(=O)[C@H](C)[C@@H](O)[C@]1(C)O` [ERYTHROMYCIN], the IC50 result (in test [1] (insect cells); in test [2]; against Thromboxane-A synthase (platelet); in test [3] (hela); in test [4]; against Substance-P receptor) was “Not Active” throughout. Besides, the inhibition constant Ki entry in test [2] is “Not Active”.

On to `NC(N)=Nc1nc(CSCCC(N)=NS(N)(=O)=O)cs1` [FAMOTIDINE], for which the IC50 entry (in test [1] (insect cells); in test [2]; against Thromboxane-A synthase (platelet); in test [3] (hela); in test [4]; against Substance-P receptor) was “Not Active” in each case. Further, in test [2], the Ki entry is on record as “Not Active”.

`CN(CCOc1ccc(C[C@H](Nc2ccccc2C(=O)c2ccccc2)C(=O)O)cc1)c1ccccn1`: the half-maximal inhibitory concentration (IC50) was 10.9 µM in test [1] (read-out: IC50); “Not Active” in test [2]; 2.95 µM on Thromboxane-A synthase (read-out: IC50); “Not Active” in test [3] (hela); “Not Active” in test [4]; “Not Active” against Substance-P receptor. In test [2], the Ki result is given as “Not Active”.

Take `COc1cc(NC(C)CCCN)c2ncccc2c1` (stereo not drawn) [PRIMAQUINE]: the IC50 result (in test [1] (insect cells); in test [2]; on Thromboxane-A synthase (platelet); in test [3] (hela); in test [4]; against Substance-P receptor) was “Not Active” throughout. In addition, the Ki entry in test [2] is on record as “Not Active”.

On to `c1ccc2sc(SSc3nc4ccccc4s3)nc2c1` [BENZOTHIAZYL DISULFIDE], for which the IC50 entry is “Not Active” in test [1] (insect cells); “Not Active” in test [2]; “Not Active” on Thromboxane-A synthase (platelet); 5.28 µM in test [3] (read-out: IC50); “Not Active” in test [4]; “Not Active” against Substance-P receptor. In addition, the results for the Ki entry in test [2] and in test [3] were “Not Active” and 2.45 µM, respectively.

`CC(C)(C#N)c1cc(Cn2cncn2)cc(C(C)(C)C#N)c1` [ANASTROZOLE]: the IC50 entry (in test [1] (insect cells); in test [2]; against Thromboxane-A synthase (platelet); in test [3] (hela); in test [4]; at Substance-P receptor) was “Not Active” in each case. Also, in test [2], the Ki entry is “Not Active”.

In the case of `CC(=O)[C@]1(O)Cc2c(O)c3c(c(O)c2[C@@H](O[C@H]2C[C@H](N)[C@H](O)[C@H](C)O2)C1)C(=O)c1ccccc1C3=O` [IDARUBICIN], the IC50 entry (in test [1] (insect cells); in test [2]; on Thromboxane-A synthase (platelet); in test [3] (hela); in test [4]; at Substance-P receptor) was “Not Active” throughout. Also, the Ki result in test [2] is given as “Not Active”.

Regarding `O=C(O)c1ccccc1` [BENZOIC ACID], the IC50 result (in test [1] (insect cells); in test [2]; against Thromboxane-A synthase (platelet); in test [3] (hela); in test [4]; on Substance-P receptor) was “Not Active” in each case. In test [2], the Ki result is listed as “Not Active”.

`O=C(Nc1ccc(Cl)c(Cl)c1)c1cc(Cl)cc(Cl)c1O` [3,3',4',5-TETRACHLOROSALICYLANILIDE]: the IC50 result in test [1] (insect cells) was “Not Active”; in test [2], “Not Active”; on Thromboxane-A synthase (read-out: IC50), 4.93 µM; in test [3] (hela) it was “Not Active”; in test [4], “Not Active”; on Substance-P receptor, “Not Active”. In addition, the Ki entry in test [2] was “Not Active”.

As a reminder, the IC50 is the concentration that gives 50% inhibition. For orientation: Ki means a measure of affinity in units of concentration, obtained from inhibition or displacement.
